The values below come from BindingDB's records for doi:10.1021/acs.biochem.5b00135 (Northwestern University, 2015).

The target of this assay is T1, Nitric oxide synthase, inducible (Mus musculus, UniProt P29477).
T1 sequence (P29477 whole entry): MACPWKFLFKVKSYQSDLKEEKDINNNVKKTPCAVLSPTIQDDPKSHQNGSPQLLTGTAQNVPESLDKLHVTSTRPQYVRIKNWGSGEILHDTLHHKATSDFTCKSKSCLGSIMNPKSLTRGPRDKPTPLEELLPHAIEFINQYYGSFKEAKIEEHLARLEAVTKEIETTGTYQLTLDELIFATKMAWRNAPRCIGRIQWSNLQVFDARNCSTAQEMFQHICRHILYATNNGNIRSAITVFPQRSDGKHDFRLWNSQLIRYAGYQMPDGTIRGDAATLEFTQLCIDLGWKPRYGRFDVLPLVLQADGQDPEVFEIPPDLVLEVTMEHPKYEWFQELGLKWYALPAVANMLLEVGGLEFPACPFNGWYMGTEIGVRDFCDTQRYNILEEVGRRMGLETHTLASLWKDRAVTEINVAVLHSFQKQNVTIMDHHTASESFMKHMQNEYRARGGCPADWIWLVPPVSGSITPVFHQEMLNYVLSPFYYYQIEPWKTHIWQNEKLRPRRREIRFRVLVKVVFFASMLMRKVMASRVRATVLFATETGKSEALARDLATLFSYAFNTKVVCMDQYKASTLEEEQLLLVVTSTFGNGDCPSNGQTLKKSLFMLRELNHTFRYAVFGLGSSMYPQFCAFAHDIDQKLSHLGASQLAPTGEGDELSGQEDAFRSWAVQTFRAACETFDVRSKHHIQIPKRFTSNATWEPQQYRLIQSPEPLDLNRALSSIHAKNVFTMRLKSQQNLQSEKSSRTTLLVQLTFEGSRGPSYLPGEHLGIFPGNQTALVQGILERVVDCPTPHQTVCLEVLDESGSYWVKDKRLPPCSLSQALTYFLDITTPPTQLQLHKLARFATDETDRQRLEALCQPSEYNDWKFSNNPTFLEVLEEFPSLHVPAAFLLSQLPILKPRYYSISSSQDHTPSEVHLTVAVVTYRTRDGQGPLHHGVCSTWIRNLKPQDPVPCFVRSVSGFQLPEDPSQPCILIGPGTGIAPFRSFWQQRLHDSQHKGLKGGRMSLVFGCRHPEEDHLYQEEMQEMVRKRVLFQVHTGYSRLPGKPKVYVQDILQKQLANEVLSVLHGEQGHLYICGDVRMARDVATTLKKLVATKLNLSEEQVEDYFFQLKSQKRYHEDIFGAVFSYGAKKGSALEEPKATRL
The assay can be described thus: Hemoglobin Assay. The note with it: pH 7.4. How it is done: The final volume was adjusted to 600 μL with 100 mM Hepes buffer (pH 7.4).
For orientation: IC50 means the concentration that inhibits the measured activity by half. As a reminder, the Ki is a dissociation constant, usually derived from enzyme kinetics or from competition with a known ligand. A low value points to higher affinity. `CC(C)(C)C(=N)NCCC[C@H](N)C(=O)O` [(S)-2-Amino-5-pivalimidamidopentanoic acid (12)]: the IC50 turned out to be 323 µM and the affinity, expressed as Ki, was 146 µM.
As to `CCC(=N)NCCC[C@H](N)C(=O)O` [(S)-2-Amino-5-propionimidamidopentanoic acid (8)], the midpoint of inhibition, the IC50, lay at 16.1 µM and the Ki came out at 7.25 µM.
Take `CC(C)C(=N)NCCC[C@H](N)C(=O)O` [(S)-2-Amino-5-isobutyrimidamidopentanoic acid (10)]: the IC50 was 138 µM and the affinity corresponds to a Ki of 65.2 µM.
For `CC(=N)NCCC[C@H](N)C(=O)O` [(S)-5-Acetimidamido-2-aminopentanoic acid (4, L-NIO)], the IC50 was determined as 8.1 µM.
On to `N=CNCCC[C@H](N)C(=O)O` [(S)-2-Amino-5-formimidamidopentanoic acid (7)], for which the IC50 was 0.4 µM and the affinity, expressed as Ki, was 0.18 µM.
For `CCCC(=N)NCCC[C@H](N)C(=O)O` [(S)-2-Amino-5-butyrimidamidopentanoic acid (9)] the same measures were 19.1 µM and 8.61 µM.
